For data set [1] the following is noted: LD50 better than for free DOTA; cited from earlier work.
Data set [2] in a line: Moisture content of DOTA (Karl Fischer) over time at controlled relative humidity. The format is physicochemical. Particulars: Temp. 20 ± 2° C. The procedure:
The measurement of the moisture content in DOTA is performed as described in the semi-micro method of Karl Fischer (Fischer, Karl-Pharm. Eur. Section 2.5.12). This section and the next section illustrates how the moisture content in a batch of a macrocyclic ligand changed when the product was exposed to different conditions of relative humidity. The moisture content in the samples was measured using methods known to those skilled in the art. In this example, the measurement of the content of moisture in DOTA was performed as described above. Two samples of DOTA were kept in conditions of relative humidity (RH)=30+5% at a temperature of Temp=20+2° C. From these samples, small samples were taken at different times (T0=beginning of the experiment; T30=T0+30 min; T90=T0+90 min; and […]=T0+300 min) and the moisture content was measured as described above. Each experiment (Exp.) was performed twice and the average of each (Ind.) was determined (Avg.). This measurement, as the previous one, illustrated how the moisture content in a batch of a macrocyclic ligand was affected by the environmental relative humidity conditions. Therefore, the previous experiments were repeated in the same conditions but at a RH=75+5%. Again, each experiment (Exp.) was performed twice and the average of each (Ind.) was determined (Avg.).

Where “and” joins values, the source holds several entries; their conditions need not be identical. Equal values may be shown once.

In the case of `O=C([O-])CN1CCN(CC(=O)[O-])CCN(CC(=O)[O-])CCN(CC(=O)[O-])CC1.[Ca+2].[Na+].[Na+]` [Na2 [Ca-DOTA]], the “LD50 of Na2 [Ca-DOTA] relative to free DOTA” value in data set [1] is given as “at least 40 times”.

In the case of `O=C(O)CN1CCN(CC(=O)O)CCN(CC(=O)O)CCN(CC(=O)O)CC1` [DOTA, 1,4,7,10-tetraazacyclododecane-1,4,7,10-tetraacetic acid], the “Moisture content DOTA, Avg.” value in data set [2] (T0, RH 30 ± 5%) was 4.929 wt. % and 5.25 wt. %; in data set [2] (T0, RH 75 ± 5%) it was 4.94 wt. % and 5.25 wt. %; in data set [2] (T30 (T0+30 min), RH 30 ± 5%), 4.98 wt. % and 6.20 wt. %; in data set [2] (T30 (T0+30 min), RH 75 ± 5%), 6.71 wt. % and 6.65 wt. %; in data set [2] (T90 (T0+90 min), RH 30 ± 5%) it was 5.00 wt. % and 6.12 wt. %; in data set [2] (T90 (T0+90 min), RH 75 ± 5%) it was 7.34 wt. % and 6.88 wt. %. Moreover, the “Moisture content DOTA, Avg.” value is 5.15 wt. % and 6.19 wt. % in data set [2] (T300 (T0+300 min), RH 30 ± 5%); 5.86 wt. % and 4.36 wt. % in data set [2] (T300 (T0+300 min), RH 75 ± 5%). Moreover, the “Moisture content DOTA, Ind.” value in data set [2] (T0, RH 30 ± 5%) was 5.150 wt. % and 4.941 wt. % and 4.929 wt. % and 5.346 wt. %; in data set [2] (T0, RH 75 ± 5%) it was 5.150 wt. % and 4.941 wt. % and 4.929 wt. % and 5.346 wt. %; in data set [2] (T30 (T0+30 min), RH 30 ± 5%), 6.247 wt. % and 4.944 wt. % and 5.020 wt. % and 6.154 wt. %; in data set [2] (T30 (T0+30 min), RH 75 ± 5%), 6.851 wt. % and 6.734 wt. % and 6.694 wt. % and 6.449 wt. %; in data set [2] (T90 (T0+90 min), RH 30 ± 5%), 6.170 wt. % and 5.038 wt. % and 4.954 wt. % and 6.062 wt. %; in data set [2] (T90 (T0+90 min), RH 75 ± 5%) it was 6.789 wt. % and 7.475 wt. % and 7.200 wt. % and 6.962 wt. %. Moreover, the “Moisture content DOTA, Ind.” value was 6.268 wt. % and 5.178 wt. % and 5.114 wt. % and 6.106 wt. % in data set [2] (T300 (T0+300 min), RH 30 ± 5%); 4.609 wt. % and 5.914 wt. % and 5.813 wt. % and 4.111 wt. % in data set [2] (T300 (T0+300 min), RH 75 ± 5%).

Source of the values: US20160051706A1, “PROCESS FOR PRODUCING A COMPLEX OF A LANTHANIDE WITH A MACROCYCLIC LIGAND” (AGFA HEALTHCARE, priority 2013, published 2016).
